Measured values: patent publication US20240158446A1, “CYCLIC COMPOUND HAVING SELECTIVE INHIBITORY ACTION ON KRAS OVER HRAS AND NRAS” (CHUGAI SEIYAKU KABUSHIKI KAISHA, priority 2021, published 2024)
Read-outs that look alike come from different tables or passages of the source.

Tests used:
[1] = target: GDP-bound NRAS wild-type protein (Homo sapiens, UniProt P01111); assay: Binding to NRAS by surface plasmon resonance (SPR), Single Cycle Kinetics; details: for NRAS/KRAS (ratio of KD value for NRAS to KD value for KRAS): SPR, GDP-bound NRAS wild-type protein vs GDP-bound KRAS wild-type protein; for NRAS/KRAS (ratio of KD value with respect to GDP-bound NRAS wild-type protein to KD value with respect to KRAS): SPR KD ratio NRAS/KRAS, class symbols
[2] = target: GDP-bound HRAS wild-type protein (Homo sapiens, UniProt P01112); assay: Binding to HRAS by surface plasmon resonance (SPR), Single Cycle Kinetics; details: for HRAS/KRAS (ratio of KD value for HRAS to KD value for KRAS): SPR, GDP-bound HRAS wild-type protein vs GDP-bound KRAS wild-type protein; for HRAS/KRAS (ratio of KD value with respect to GDP-bound HRAS wild-type protein to KD value with respect to KRAS): SPR KD ratio HRAS/KRAS, class symbols
[3] = target: GDP-bound KRAS wild-type protein (Homo sapiens, UniProt P01116); assay: Binding to KRAS by surface plasmon resonance (SPR), Single Cycle Kinetics; details: GDP-bound KRAS wild-type protein, read-out: KRAS KD
[4] = system: human lung cancer strain NCI-H441;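 further: cell proliferation inhibition after four days measured by CellTiter-Glo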
[5] = SPR Single Cycle Kinetics, 1:1 binding model
[6] = SPR, Single Cycle Kinetics, 1:1 binding model

Sequence of GDP-bound KRAS wild-type protein (P01116 whole entry): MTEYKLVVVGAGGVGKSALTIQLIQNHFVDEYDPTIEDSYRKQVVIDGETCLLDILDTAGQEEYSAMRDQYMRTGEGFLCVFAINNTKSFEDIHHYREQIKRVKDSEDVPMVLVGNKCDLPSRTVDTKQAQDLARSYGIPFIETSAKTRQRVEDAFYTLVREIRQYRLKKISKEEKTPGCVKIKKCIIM
Sequence of GDP-bound NRAS wild-type protein (P01111 whole entry): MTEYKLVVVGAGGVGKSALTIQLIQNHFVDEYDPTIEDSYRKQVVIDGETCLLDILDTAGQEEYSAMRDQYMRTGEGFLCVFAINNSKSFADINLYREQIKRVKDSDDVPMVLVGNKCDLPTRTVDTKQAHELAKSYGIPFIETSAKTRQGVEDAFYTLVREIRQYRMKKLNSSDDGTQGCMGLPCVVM
Sequence of GDP-bound HRAS wild-type protein (P01112 whole entry): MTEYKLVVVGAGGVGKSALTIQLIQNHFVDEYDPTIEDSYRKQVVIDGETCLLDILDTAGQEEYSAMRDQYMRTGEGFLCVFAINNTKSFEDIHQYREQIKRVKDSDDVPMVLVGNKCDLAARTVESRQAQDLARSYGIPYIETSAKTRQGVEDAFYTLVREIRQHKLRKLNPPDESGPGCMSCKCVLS

Row | SMILES | Kd ([3]; SPR, Single Cycle Kinetics) | IC50 [4] | Kd [3, 5] | Kd [3, 6] | NRAS/KRAS (ratio of KD value for NRAS to KD value for KRAS) [1] | HRAS/KRAS (ratio of KD value for HRAS to KD value for KRAS) [2] | NRAS/KRAS (ratio of KD value with respect to GDP-bound NRAS wild-type protein to KD value with respect to KRAS) [1] | HRAS/KRAS (ratio of KD value with respect to GDP-bound HRAS wild-type protein to KD value with respect to KRAS) [2] | NRAS/KRAS (ratio of KD value for NRAS to KD value for KRAS) ([1]; KD ratio class) | HRAS/KRAS (ratio of KD value for HRAS to KD value for KRAS) ([2]; KD ratio class)
1 | CCCOC[C@H]1C(=O)N[C@@H]([C@@H](C)CC)C(=O)N(C)CC(=O)N(C)[C@H]2C/C=C\CCN(C2=O)[C@@H](Cc2ccc(C)cc2)C(=O)N(C)CC(=O)N[C@@H](CCc2cc(F)c(C(F)(F)F)c(F)c2)C(=O)N2C[C@H](OCC)C[C@H]2C(=O)NC2(CC(C)(C)C2)C(=O)N(C)[C@@H](CC(C)(C)C)C(=O)N(C)[C@H](C(=O)N(C)C)CC(=O)N1C [PP2708] | – | 5.1 nM | 0.072 nM | – | – | – | A (a compound having 10 or more and less than 20 is denoted as A) | A (a compound having 10 or more and less than 20 is denoted as A) | – | –
2 | CCOC[C@H]1C(=O)N[C@@H]([C@@H](C)CC)C(=O)N(C)CC(=O)N(C)[C@H]2C/C=C\CCN(C2=O)[C@@H](Cc2ccc(C)cc2)C(=O)N(C)CC(=O)N[C@@H](CCc2ccc(C(F)(F)F)c(Cl)c2)C(=O)N2C[C@@H](C)C[C@H]2C(=O)NC2(CC(C)(C)C2)C(=O)N(C)[C@@H](C2CCCC2)C(=O)N(C)[C@H](C(=O)N(C)CC)CC(=O)N1C [PP2451] | 0.17 nM | 8.6 nM | – | – | A (a compound having 10 or more and less than 20 is denoted as A) | A (a compound having 10 or more and less than 20 is denoted as A) | – | – | – | –
3 | CCO[C@@H]1C[C@H]2C(=O)NC3(CC(C)(C)C3)C(=O)N(C)[C@@H](CC(C)(C)C)C(=O)N(C)[C@H](C(=O)N(C)C)CC(=O)N(C)[C@@H](COC)C(=O)N[C@@H]([C@@H](C)CC)C(=O)N(C3CC3)CC(=O)N(C)[C@H]3C/C=C\CCN(C3=O)[C@@H](Cc3ccc(C(F)(F)F)cc3)C(=O)N(C)CC(=O)N[C@@H](CCc3ccc(C(F)(F)F)c(OC)c3)C(=O)N2C1 [PP2748] | – | 7.1 nM | 0.2 nM | – | – | – | A (a compound having 10 or more and less than 20 is denoted as A) | A (a compound having 10 or more and less than 20 is denoted as A) | – | –
4 | CCC[C@H]1C(=O)N[C@@H]([C@@H](C)CC)C(=O)N(C)CC(=O)N(C)[C@H]2C/C=C\CCN(C2=O)[C@@H](Cc2ccc(C(F)(F)F)cc2)C(=O)N(C)CC(=O)N[C@@H](CCc2cc(F)c(Cl)c(F)c2)C(=O)N2C[C@H](OCC)C[C@H]2C(=O)NC2(CCC2)C(=O)N(C)[C@@H](C(CC)CC)C(=O)N(C)[C@H](C(=O)N(C)C)CC(=O)N1C [PP1231] | – | 23.1 nM | – | 0.56 nM | – | – | – | – | AA (a compound having 20 or more is denoted as AA) | A (a compound having 10 or more and less than 20 is denoted as A)
5 | CCOC[C@H]1C(=O)N[C@@H]([C@@H](C)CC)C(=O)N(C)CC(=O)N(C)[C@H]2C/C=C\CCN(C2=O)[C@@H](Cc2ccc(C)cc2)C(=O)N(C)CC(=O)N[C@@H](CCc2ccc(C(F)(F)F)c(Cl)c2)C(=O)N2C[C@H](OCC)C[C@H]2C(=O)NC2(CC(C)(C)C2)C(=O)N(C)[C@@H](C2CCCC2)C(=O)N(C)[C@H](C(=O)N(C)CC)CC(=O)N1C [PP2401] | 0.12 nM | 5.3 nM | – | – | A (a compound having 10 or more and less than 20 is denoted as A) | A (a compound having 10 or more and less than 20 is denoted as A) | – | – | – | –
6 | CCC[C@H]1C(=O)N[C@@H]([C@@H](C)CC)C(=O)N(C)CC(=O)N(C)[C@H]2C/C=C\CCN(C2=O)[C@@H](Cc2ccc(C(F)(F)F)cc2)C(=O)N(C)CC(=O)N[C@@H](CCc2ccc(Cl)c(Cl)c2)C(=O)N2C[C@H](OCC)C[C@H]2C(=O)NC2(CC(C)(C)C2)C(=O)N(C)[C@@H](CC(C)(C)C)C(=O)N(C)[C@H](C(=O)N(C)C)CC(=O)N1C [PP2738] | – | 8.5 nM | 0.17 nM | – | – | – | AA (a compound having 20 or more is denoted as AA) | A (a compound having 10 or more and less than 20 is denoted as A) | – | –
7 | CCC[C@H]1C(=O)N[C@@H]([C@@H](C)CC)C(=O)N2CCC[C@H]2C(=O)N(C)[C@H]2C/C=C\CCN(C2=O)[C@@H](CC2CCCCC2)C(=O)N(C)CC(=O)N[C@@H](CCc2ccc(C(F)(F)F)c(OC)c2)C(=O)N2C[C@@H](C)C[C@H]2C(=O)N(C)C2(CCC2)C(=O)N(C)[C@@H](C2CCCC2)C(=O)N(C)[C@H](C(=O)N(C)C)CC(=O)N1C [PP2374] | 0.85 nM | 67.2 nM | – | – | A (a compound having 10 or more and less than 20 is denoted as A) | A (a compound having 10 or more and less than 20 is denoted as A) | – | – | – | –
8 | CC[C@H](C)[C@@H]1NC(=O)[C@H](CC)N(C)C(=O)C[C@@H](C(=O)N(C)C)N(C)C(=O)[C@H](C2CCCC2)N(C)C(=O)C2(CCC2)NC(=O)[C@@H]2CC(F)(F)CN2C(=O)[C@H](CCc2cc(F)c(C(F)(F)F)c(F)c2)NC(=O)CN(C)C(=O)[C@H](CC2CCCCC2)N2CC/C=C\C[C@@H](C2=O)N(C)C(=O)CN(C)C1=O [PP1462, (2S,8S,14S,20S,23S,27S,30S,36S,38Z)-2-(cyclohexylmethyl)-20-cyclopentyl-8-[2-[3,5-difluoro-4-(trifluoromethyl)phenyl]ethyl]-27-ethyl-12,12-difluoro-N,N,4,19,22,26,32,35-octamethyl-30-[(1S)-1-methylpropyl]-3,6,9,15,18,21,25,28,31,34,42-undecaoxo-spiro[1,4,7,10,16,19,22,26,29,32,35-undecazatricyclo[34.5.1.0^10,14]dotetracont-38-ene-17,1′-cyclobutane]-23-carboxamide] | – | 27.5 nM | – | 0.12 nM | – | – | – | – | A (a compound having 10 or more and less than 20 is denoted as A) | A (a compound having 10 or more and less than 20 is denoted as A)

Further compounds by falling IC50 [4], results first:

Row | Kd ([3]; SPR, Single Cycle Kinetics) | IC50 [4] | Kd [3, 5] | Kd [3, 6] | SMILES | NRAS/KRAS (ratio of KD value for NRAS to KD value for KRAS) [1] | HRAS/KRAS (ratio of KD value for HRAS to KD value for KRAS) [2] | NRAS/KRAS (ratio of KD value with respect to GDP-bound NRAS wild-type protein to KD value with respect to KRAS) [1] | HRAS/KRAS (ratio of KD value with respect to GDP-bound HRAS wild-type protein to KD value with respect to KRAS) [2] | NRAS/KRAS (ratio of KD value for NRAS to KD value for KRAS) ([1]; KD ratio class) | HRAS/KRAS (ratio of KD value for HRAS to KD value for KRAS) ([2]; KD ratio class)
9 | – | 142 nM | 3.8 nM | – | CCC(CC)[C@H]1C(=O)N(C)[C@H](C(=O)N(C)C)CC(=O)N(C)[C@@H](COC)C(=O)N[C@@H]([C@@H](C)CC)C(=O)N(C2CC2)CC(=O)N(C)[C@H]2C/C=C\CCN(C2=O)[C@@H](CC2CCC(F)(F)CC2)C(=O)N(C)CC(=O)N[C@@H](CCc2ccc(Cl)c(Cl)c2)C(=O)N2C[C@H](OC(C)C)C[C@H]2C(=O)NC2(CC(C)(C)C2)C(=O)N1C [PP2525] | – | – | AA (a compound having 20 or more is denoted as AA) | A (a compound having 10 or more and less than 20 is denoted as A) | – | –
10 | 0.5 nM | 60.1 nM | – | – | CCOC[C@H]1C(=O)N[C@@H]([C@@H](C)CC)C(=O)N(C)CC(=O)N(C)[C@H]2C/C=C\CCN(C2=O)[C@@H](Cc2ccc(C)cc2)C(=O)N(C)CC(=O)N[C@@H](CCc2cc(F)c(C(F)(F)F)c(F)c2)C(=O)N2C[C@@H](C)C[C@H]2C(=O)NC2(CC(C)(C)C2)C(=O)N(C)[C@@H](C2CCCC2)C(=O)N(C)[C@H](C(=O)N(CC)CC)CC(=O)N1C [PP2407] | A (a compound having 10 or more and less than 20 is denoted as A) | A (a compound having 10 or more and less than 20 is denoted as A) | – | – | – | –
11 | – | 48.2 nM | – | 0.23 nM | CCO[C@@H]1C[C@H]2C(=O)NC3(CCC3)C(=O)N(C)[C@@H](C3CCCC3)C(=O)N(C)[C@H](C(=O)N(C)C)CC(=O)N(C)[C@@H](CC(C)(C)C)C(=O)N[C@@H]([C@@H](C)CC)C(=O)N(C)CC(=O)N(C)[C@H]3C/C=C\CCN(C3=O)[C@@H](CC3CCCCC3)C(=O)N(C)CC(=O)N[C@@H](CCc3cc(F)c(C(F)(F)F)c(F)c3)C(=O)N2C1 [PP1474] | – | – | – | – | A (a compound having 10 or more and less than 20 is denoted as A) | A (a compound having 10 or more and less than 20 is denoted as A)
12 | 0.7 nM | 36.6 nM | – | – | CCOC[C@H]1C(=O)N[C@@H]([C@@H](C)CC)C(=O)N2CCC[C@H]2C(=O)N(C)[C@H]2C/C=C\CCN(C2=O)[C@@H](Cc2ccc(C)cc2)C(=O)N(C)CC(=O)N[C@@H](CCc2ccc(C(F)(F)F)c(OC)c2)C(=O)N2C[C@@H](C)C[C@H]2C(=O)NC2(CC(C)(C)C2)C(=O)N(C)[C@@H](C2CCCC2)C(=O)N(C)[C@H](C(=O)N(C)CC)CC(=O)N1C [PP2427] | AA (a compound having 20 or more is denoted as AA) | A (a compound having 10 or more and less than 20 is denoted as A) | – | – | – | –
13 | – | 18.2 nM | – | 0.15 nM | CCO[C@@H]1C[C@H]2C(=O)NC3(CCC3)C(=O)N(C)[C@@H](C3CCCC3)C(=O)N(C)[C@H](C(=O)N(C)C)CC(=O)N(C)[C@@H](CC3CCCC3)C(=O)N[C@@H]([C@@H](C)CC)C(=O)N(C)CC(=O)N(C)[C@H]3C/C=C\CCN(C3=O)[C@@H](CC3CCC(F)(F)CC3)C(=O)N(C)CC(=O)N[C@@H](CCc3cc(F)c(C(F)(F)F)c(F)c3)C(=O)N2C1 [PP1458] | – | – | – | – | A (a compound having 10 or more and less than 20 is denoted as A) | A (a compound having 10 or more and less than 20 is denoted as A)
